These results are taken from patent US8101638B2, “6-substituted nicotinamide derivatives as opioid receptor antagonists” (Eli Lilly and Company, priority 2003, dated 2012).

Holding throughout (format): biochemical
Experiment [1] has as its target mu opioid receptor (MOR) (Homo sapiens, UniProt P35372). In words: SPA-based GTP-γ-S binding assay, antagonist mode, mu opioid receptor. Particulars: antagonist assay against agonist DAMGO 1 micromolar; membranes; Kb by Cheng-Prusoff equation. On the procedure: (§1) A scintillation proximity assay (SPA) based GTP-γ-S^35 assay format was developed based on previous opioid (Emmerson et al., J. Pharm Exp Ther 278, 1121, 1996; Horng et al., Society for Neuroscience Abstracts, 434.6, 2000) and muscarinic (DeLapp et al., JPET 289, 946, 1999) assay formats. Membranes were resuspended in 20 mM HEPES, 100 mM NaCl, 5 mM MgCl2, 1 mM DTT, and 1 mM EDTA. […] of GTP-γ-[35S], compound, membrane suspension (20 microgram/well), and wheat germ agglutinin coated SPA beads (1 mg/well) were added to clear bottom 96 well assay plates. GDP ([…]) was added to the membrane solution prior to addition to the assay plates. Plates were sealed and incubated for four hours at room temperature then placed in a refrigerator overnight to allow the beads to settle. Signal stability at 4° C. was determined to be >60 hours. Plates were warmed to room temperature and counted in a Wallac Microbeta scintillation counter. For antagonist assays, specific agonists were added at the following concentrations: (MOR) DAMGO 1 micromolar, (DOR) DPDPE 30 nM, (KOR) U69593 300 nM. Kb's were determined by Cheng-Prusoff equation (see Cheng and Prusoff, Biochem. Pharmacol. 22, 3099, 1973).
(In general: GTPγS is a poorly hydrolysed GTP analogue; its binding reports G protein activation.)

Experiment [2] deals with kappa opioid receptor (KOR) (Homo sapiens, UniProt P41145). As to the kind of experiment: SPA-based GTP-γ-S binding assay, antagonist mode, kappa opioid receptor. As to conditions: antagonist assay against agonist U69593 300 nM; membranes; Kb by Cheng-Prusoff equation. On the procedure:
as §1

The target of experiment [3] is delta opioid receptor (DOR) (Homo sapiens, UniProt P41143). In words: SPA-based GTP-γ-S binding assay, antagonist mode, delta opioid receptor. Particulars: antagonist assay against agonist DPDPE 30 nM; membranes; Kb by Cheng-Prusoff equation. As to the method:
as §1

Sequence of delta opioid receptor (DOR) (P41143 whole entry): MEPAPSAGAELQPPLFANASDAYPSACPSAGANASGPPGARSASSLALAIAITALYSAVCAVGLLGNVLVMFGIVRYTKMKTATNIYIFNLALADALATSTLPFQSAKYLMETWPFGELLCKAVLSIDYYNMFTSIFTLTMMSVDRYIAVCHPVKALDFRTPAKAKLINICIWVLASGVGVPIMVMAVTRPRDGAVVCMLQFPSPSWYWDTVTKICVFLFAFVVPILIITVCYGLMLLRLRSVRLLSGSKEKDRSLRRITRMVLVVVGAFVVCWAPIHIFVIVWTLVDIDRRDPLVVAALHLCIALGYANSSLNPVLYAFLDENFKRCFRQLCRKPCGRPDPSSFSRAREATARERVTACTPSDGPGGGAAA
Sequence of mu opioid receptor (MOR) (P35372 whole entry): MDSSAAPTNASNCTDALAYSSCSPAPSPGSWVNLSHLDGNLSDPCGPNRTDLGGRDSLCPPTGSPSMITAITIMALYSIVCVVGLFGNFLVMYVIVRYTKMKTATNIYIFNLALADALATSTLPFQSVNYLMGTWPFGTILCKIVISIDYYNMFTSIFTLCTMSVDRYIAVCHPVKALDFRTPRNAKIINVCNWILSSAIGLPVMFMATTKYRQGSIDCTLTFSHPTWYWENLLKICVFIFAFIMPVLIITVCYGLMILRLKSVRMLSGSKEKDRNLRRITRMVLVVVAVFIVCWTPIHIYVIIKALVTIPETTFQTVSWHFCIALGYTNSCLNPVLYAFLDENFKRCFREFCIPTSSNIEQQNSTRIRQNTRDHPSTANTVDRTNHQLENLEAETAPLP
Sequence of kappa opioid receptor (KOR) (P41145 whole entry): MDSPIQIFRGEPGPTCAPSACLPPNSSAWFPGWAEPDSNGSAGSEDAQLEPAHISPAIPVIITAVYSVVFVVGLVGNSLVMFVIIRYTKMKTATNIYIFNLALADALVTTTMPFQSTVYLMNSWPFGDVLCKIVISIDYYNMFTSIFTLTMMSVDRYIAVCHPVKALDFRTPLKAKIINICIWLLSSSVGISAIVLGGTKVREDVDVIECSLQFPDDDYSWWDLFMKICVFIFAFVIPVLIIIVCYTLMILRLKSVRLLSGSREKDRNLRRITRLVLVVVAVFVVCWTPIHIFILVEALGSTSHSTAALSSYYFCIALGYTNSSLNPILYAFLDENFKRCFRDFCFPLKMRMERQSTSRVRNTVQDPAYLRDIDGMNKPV

With `CC(C)CCNCC1CCCc2c(Oc3ccc(C(N)=O)cn3)cccc21` (stereo not drawn) [Example 192, 6-{5-[(3-Methyl-butylamino)-methyl]-5,6,7,8-tetrahydro-naphthalen-1-yloxy}-nicotinamide], the results for the Kb in experiment [1], in experiment [2] and in experiment [3] were 1.1 nM, 11.8 nM and 9.4 nM, respectively.
For the compound `NC(=O)c1ccc(Oc2ccc3c(c2)CCC3NCCc2ccc(F)cc2)nc1` (stereo not drawn) [Example 90, 6-{1-[2-(4-Fluoro-phenyl)-ethylamino]-indan-5-yloxy}-nicotinamide], the values for the Kb in experiment [1], in experiment [2] and in experiment [3] were 0.4 nM, 9.2 nM and 14.6 nM, respectively.
The corresponding values for `CC(C)CCN(C)C1CCc2cc(Oc3ccc(C(N)=O)cn3)ccc21` (stereo not drawn) [Example 20] are 0.73 nM, 2.5 nM and 13.5 nM.
Turning to `NC(=O)c1ccc(Oc2cccc3c2CCCC3CNCCC2CCCCC2)nc1` (stereo not drawn) [Example 195, 6-{5-[(2-Cyclohexyl-ethylamino)-methyl]-5,6,7,8-tetrahydro-naphthalen-1-yloxy}-nicotinamide], the Kb in experiment [1] is 0.5 nM; in experiment [2], 76 nM; in experiment [3], 7.9 nM.
The corresponding values for `CC(C)(C)CCNCC1CCCc2c(Oc3ccc(C(N)=O)cn3)cccc21` (stereo not drawn) [Example 202, 6-{5-[(3,3-Dimethyl-butylamino)-methyl]-5,6,7,8-tetrahydro-naphthalen-1-yloxy}-nicotinamide] are 0.65 nM, 5.79 nM and 4.09 nM.

The term Kb denotes the affinity of an antagonist, worked out from how it opposes an agonist. A high value points to a less potent antagonist.
